In test [1] the test system is glutathione(GSH) peroxidase. Kind of test: Glutathione peroxidase activity after partial ischemia and reperfusion. The settings on record: cerebral cortex; 30 min ischemia, 3 hours reperfusion; 3-week treatment; mean±S.E. (n=6).
A further test deals with MDA(Malondialdehyde). Description: Malondialdehyde measurement after partial ischemia and reperfusion. The settings on record: cerebral cortex; 30 min ischemia, 3 hours reperfusion; 3-week treatment; mean±S.E. (n=6).
For test [2], the system named is cerebral cortex of ischaemic rats. Kind of test: Dopamine and its metabolites concentrations in partial ischemia (HPLC-ECD). The settings on record: vs control, Figure 3.
Test [3] concerns cerebral cortex of ischemic rats. Kind of test: Energy metabolites in the cerebral cortex in partial ischemia. The settings on record: 3-week treatment, mean±S.E. (n=6).
The subject of test [4] is pyramidal neuronal cells at CA1 (Ammon's horn) area of the hippocampus. Kind of test: Histopathological examination of hippocampus after complete ischemia and reperfusion (cresyl-violet staining). The class given is in vivo, Mongolian gerbil. As for the experimental part:
Gerbils of both control and test groups were anesthetized with injection of pentobarbital sodium at a dose of 50 mg/kg and the carotid arteries on both sides were closed for 5 minutes to induce complete ischemia. After 7 days from initiation of reperfusion, tissues were examined by means of cresyl-violet staining.
Tissue examination under cresyl-violet staining mentioned above was done as follows. Excised cerebellum was cut into slices using sliding microtome and the slices were treated sequentially with xylene and alcohol for five minutes and finally, soaked into distilled water for another 5 minutes. Then, the slice was stained with cresyl-violet which had been prepared in advance.
After staining, the slice was washed one time for 30 minutes with flowing water, followed by dehydrating in alcohol and subsequent two time washings with xylene for 10 minutes. Then, a cover glass was placed on and the specimen was examined under optical microscope.
In the cases of complete ischemia and subsequent reperfusion, biochemical changes will appear initially but some morphological changes may result after a few days. […]

Test [5] concerns rats with memory loss induced by scopolamine. Kind of test: Passive avoidance response test (step-through shuttle box). The class given is in vivo, Sprague-Dawley rats. The settings on record: selegiline 2 mg/kg/day and/or Ginkgo biloba extract 48 mg/kg/day p.o. for 3 weeks; scopolamine 6 mg/kg; Figure 1. As for the experimental part:
(§1) To evaluate effects on memory and learning functions, rats of each group were challenged with injection of scopolamine, a drug which cause memory loss and then, subjected to the following tests.
Rats of each group were previously subjected to the adaptation training and subsequent exercises in a shuttle box of step-through type. In the real experiment, scopolamine at a dose of 6 mg/kg was given intraperitoneally and, after 30 minutes, passive avoidance responses were determined. Longer latency in response time indicate improved memory and learning fuctions.
In a step-through passive avoidance test, rats of both normal and test group treated with drugs for 3 weeks were put in a shuttle box and tested for latency time required for avoidance response after being given with scopolamine injection to induce memory loss and the results are shown in Figure 1.

The test system is the same in test [6]. Description: 8-arm radial maze test. The class given is in vivo, Sprague-Dawley rats. The settings on record: selegiline 2 mg/kg/day and/or Ginkgo biloba extract 48 mg/kg/day p.o. for 3 weeks; scopolamine 6 mg/kg; compared with control group; Figure 2. As for the experimental part: as §1
According to 01 ton and Samuelson methods[J. Exp. Psychol. Anim. Behav. Proc. 2, 97(1976)], 8-arm radial maze test system was used. That is, rats of each group were placed in the center of the eight 65-cm arms of the maze test system, which are radially stretched, and 45 mg each of pellet type feed was placed at the end of each arm. Rats were trained to visit the arm-ends to get the pellet type feeds. In real experiment, rats were pre-treated with intraperitoneal injection of scopolamine at a dose of 6 mg/kg as a challenge and subjected to the test after 30 minutes from injection.
Test was repeated for fifty(50) times. Smaller visit errors indicate gained improvements in memory and learning functions.
In order to induce memory loss, scopolamine was injected to the rats of both normal and test groups which received drug treatment for 3 weeks and then the rats were placed in the center of the 8-arm maze test system to record numbers of visit errors to the respective arms.

Test [7] concerns SOD(Superoxide dismutase). Kind of test: SOD activity after partial ischemia and reperfusion. Type of test: in vivo, Sprague-Dawley rats. The settings on record: cerebral cortex; 30 min ischemia, 3 hours reperfusion; 3-week treatment; mean±S.E. (n=6). As for the experimental part:
The supernatant was used as sample.
Previously, a test tube containing 2.3 mℓ of phosphate buffer with pH 7.8, 300 µℓ of 0.5 mM Na-xanthine, 100 µℓ of 50 µm K-cyanide and 100 µℓ of 2.4 mM Na-deoxycholate was prepared and kept in a water bath of 25 °C. To this test tube, 300 µℓ of 0.1 mM ferricytochrome and sample were added.
Then. the solution was transferred to a cell, 100 µℓ of xanthine oxidase was added, a sealing tape was placed on the cell and, while closing well with fingers, the cell was carefully shaken to mix. Changes in absorbance were measured and recorded for one minute at the wavelength of 550 nm.

The structures appear in SMILES notation.

Consider `C#CCN(C)[C@H](C)Cc1ccccc1` [Selegiline], for which the GSH peroxidase in test [1] turned out to be 2.04±0.22 units/mg protein. For the same compound, the MDA in the test on MDA(Malondialdehyde) came out at 1.80±0.22 nmol/mg protein. Further, the content of dopamine result in test [2] (3-week p.o. selegiline 2 mg/kg/day and/or Ginkgo biloba extract 48 mg/kg/day) was “significant increases”. Further, the “contents of HVA(Homovanillic acid)” value in test [2] (3-week p.o. treatment) was “decreased significantly”. Moreover, in test [3], the ATP amounted to 1.12±0.04 µmol /g wet wt, the Glucose is reported as 1.21 ±0.02 µmol/g wet wt, the Lactate stood at 5.42±0.15 µmol/g wet wt and the Pyruvate is recorded as 0.10±0.011 µmol/g wet wt. In addition, the “protection of pyramidal cells at CA1 Ammon's horn site of the hippocampus” value in test [4] (5 min complete ischemia, 7 days reperfusion, 3-week treatment, Figures 4e-4j) is listed as “did not show any effects of significance for protection of the cells”. In addition, in test [4] (CA1 site of the hippocampus, mean ± standard error (n=3-4)), the “Nerve Cell Density” value was 45±10 /mm. For the same compound, the “avoidance response time (latency)” value in test [5] was “significant increase”. Moreover, the visit errors entry in test [6] is reported as “tended to decrease”. Also, the SOD activity in test [7] is given as 0.42±0.04 units/mg protein.

For the origin of these results see patent publication EP1171146B1, “PHARMACEUTICAL CO[…] GINKGO BILOBA EXTRACT USEFUL FOR TREATING DEMENTIA” (priority 1999, dated 2000).
